Type in all cases: in vitro ADME
The target in one series is T1, CYP2E1 (Homo sapiens, UniProt P05181).
T1 construct: tissue Corning Gentest BD UltraPool HLM 150; host or cells: pooled human liver microsomes
The series can be described thus: CYP inhibition, cocktail of probe substrates in pooled human liver microsomes: chlorzoxazone 6-hydroxylation. To be noted: pooled HLMs, substrate 50 μM. How it is done: (§1) All incubations were performed in duplicate, and data are presented as means. Briefly, each reaction was performed with 0.5 mg/mL pooled human liver microsomes in a final incubation volume of 0.1 mL. The incubation medium consisted of 0.1 M potassium phosphate buffer (pH 7.4) containing cocktail of probe substrates and a NADPH-generating system (NGS) of 0.1 M glucose 6-phosphate, 10 mg/mL β-NADPH, and 1.0 U/mL glucose-6-phosphate dehydrogenase. To investigate the IC50 of bakuchicin during CYP1A inhibition, bakuchicin (at final concentrations of 0–25 μM) was incubated without preincubation. In addition, the mixture with bakuchicin was preincubated for 15 min without the probe substrate cocktail in the presence or absence of 1 mM β-NADPH. After the reaction was initiated by adding the NGS for 60 min, incubated samples were terminated by adding 100 μL acetonitrile containing 0.1% formic acid and 2.5 μL of internal standard solution (5 μM reserpine) in methanol. After mixing and centrifuging at 13,000 ×g for 12 min, a 5 μL aliquot was injected onto a C18 column for LC-MS/MS analysis.
(§2) All measurements were performed using LC-MS/MS in multiple reaction monitoring mode. LC-MS/MS was performed using an Accela™ LC system coupled to a TSQ Vantage triple quadrupole mass spectrometer (Thermo Fisher Scientific Inc., USA) equipped with a HESI-II Spray source. Electrospray ionization was performed in positive mode at a spray voltage of 3,500 V (except for the detection of 6-hydroxy chlorzoxazone). Nitrogen was used as a sheath and auxiliary gas at optimum values of 45 and 20 (arbitrary units), respectively. Vaporizer and capillary temperatures were 150 and 300°C, respectively. For LC analysis an Inertsil® ODS-2 (3 μm, 2.1 × 150 mm) column (GL Sciences Inc., Torrance, CA) was used. The mobile phase consisted of acetonitrile (mobile phase A) and water (mobile phase B), both of which contained 0.1% formic acid, at a flow rate of 0.22 mL/min at 30°C.
(§3) All incubations were performed in duplicate, and data are presented as means. […]
A general note: Microsomes from liver hold many membrane-bound enzymes, among them those of drug oxidation.

The next series concerns the target T2, CYP2B6 (Homo sapiens, UniProt P20813).
T2 construct: tissue Corning Gentest BD UltraPool HLM 150; host or cells: pooled human liver microsomes
T2 sequence (P20813 1-491): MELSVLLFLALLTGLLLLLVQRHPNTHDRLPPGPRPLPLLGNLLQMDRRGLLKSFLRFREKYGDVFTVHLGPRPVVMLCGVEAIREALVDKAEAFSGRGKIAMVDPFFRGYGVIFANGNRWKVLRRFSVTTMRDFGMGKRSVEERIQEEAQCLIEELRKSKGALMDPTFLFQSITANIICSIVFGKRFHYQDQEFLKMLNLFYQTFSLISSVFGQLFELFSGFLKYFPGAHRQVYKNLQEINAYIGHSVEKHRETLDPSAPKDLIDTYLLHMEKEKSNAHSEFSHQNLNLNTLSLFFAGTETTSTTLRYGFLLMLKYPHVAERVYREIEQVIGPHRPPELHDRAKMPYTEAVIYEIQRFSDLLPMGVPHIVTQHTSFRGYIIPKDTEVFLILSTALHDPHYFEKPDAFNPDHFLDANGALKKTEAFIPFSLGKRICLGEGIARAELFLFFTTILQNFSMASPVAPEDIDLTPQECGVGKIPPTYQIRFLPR
The experiment in a line: CYP inhibition, cocktail of probe substrates in pooled human liver microsomes: bupropion hydroxylation. To be noted: pooled HLMs, substrate 50 μM. How it is done: as §1, §2, §3

For a further series, the target named is T3, CYP1A2 (Homo sapiens, UniProt P05177).
T3 construct: tissue Corning Gentest BD UltraPool HLM 150; host or cells: pooled human liver microsomes
T3 sequence (P05177 1-516): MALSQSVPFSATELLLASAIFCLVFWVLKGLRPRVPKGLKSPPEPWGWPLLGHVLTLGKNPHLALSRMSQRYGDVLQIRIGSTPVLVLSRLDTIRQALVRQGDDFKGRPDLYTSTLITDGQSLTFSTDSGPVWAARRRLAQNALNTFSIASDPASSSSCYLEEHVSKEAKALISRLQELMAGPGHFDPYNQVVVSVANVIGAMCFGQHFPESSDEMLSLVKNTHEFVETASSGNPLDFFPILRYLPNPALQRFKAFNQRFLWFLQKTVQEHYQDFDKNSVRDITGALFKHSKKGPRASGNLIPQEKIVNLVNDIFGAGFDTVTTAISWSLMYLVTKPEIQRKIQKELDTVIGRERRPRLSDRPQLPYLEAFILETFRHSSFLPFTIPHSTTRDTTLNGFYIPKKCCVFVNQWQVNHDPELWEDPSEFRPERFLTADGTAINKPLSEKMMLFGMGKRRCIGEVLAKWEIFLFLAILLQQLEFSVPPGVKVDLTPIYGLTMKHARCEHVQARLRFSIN
The experiment in a line: CYP inhibition, cocktail of probe substrates in pooled human liver microsomes: phenacetin O-deethylation. To be noted: for IC50: pooled HLMs, substrate 80 μM. How it is done: as §1, §2
All incubations were performed in duplicate, and data are presented as means. IC50 values (the concentration of inhibitor causing a 50% inhibition in enzyme activity) were obtained using percent activity versus log[I] concentration plots. Kinetic parameters were estimated by curve fitting using SigmaPlot (version 12.0, Systat Software, Inc.).

Setting [1] is: 15 min preincubation with NADPH, read-out: IC50 With preincubation with NADPH.
Setting [2] is: 15 min preincubation without NADPH, read-out: IC50 With preincubation Without NADPH.
Setting [3] is: without preincubation, read-out: IC50 Without preincubation.

In general, IC50 refers to the point on the concentration scale where inhibition reaches its midpoint.

Each structure is given as a SMILES string. Like-named read-outs stand apart in the source and are kept apart here.

T1 sequence (P05181 whole entry): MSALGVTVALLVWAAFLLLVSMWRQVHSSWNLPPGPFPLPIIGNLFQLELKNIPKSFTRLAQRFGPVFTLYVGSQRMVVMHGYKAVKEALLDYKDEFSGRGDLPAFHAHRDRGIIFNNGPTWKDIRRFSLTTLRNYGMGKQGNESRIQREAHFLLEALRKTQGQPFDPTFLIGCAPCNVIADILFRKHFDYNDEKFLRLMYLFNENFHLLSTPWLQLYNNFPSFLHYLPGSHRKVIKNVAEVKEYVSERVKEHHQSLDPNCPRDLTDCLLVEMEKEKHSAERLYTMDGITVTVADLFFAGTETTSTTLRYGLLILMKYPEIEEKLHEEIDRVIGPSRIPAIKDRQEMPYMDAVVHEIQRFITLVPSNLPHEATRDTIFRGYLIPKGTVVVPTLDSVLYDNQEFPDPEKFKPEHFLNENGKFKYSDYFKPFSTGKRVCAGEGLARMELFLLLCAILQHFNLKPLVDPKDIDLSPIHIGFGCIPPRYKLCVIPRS

Turning to `O=c1ccc2c(ccc3ccoc32)o1` [Bakuchicin], the IC50 is > 100 µM on CYP2E1 (setting [1]); > 100 µM on CYP2E1 (setting [2]); > 100 µM on CYP2E1 (setting [3]); 11.5 µM at CYP2B6 (setting [1]); 16.4 µM at CYP2B6 (setting [2]); 14.2 µM on CYP2B6 (setting [3]). Also, the 50% inhibitory concentration (IC50) on CYP1A2 (setting [1]) was 0.22 µM; at CYP1A2 (setting [2]), 0.22 µM; on CYP1A2 (setting [3]) it was 0.43 µM. On CYP1A2 (HLMs, preincubation time 0-20 min at 37°C), the “time dependence of CYP1A inhibition” value is listed as “not time-dependent inhibition”.

(Values after publication PMC4763008, “Selective Inhibition of Bakuchicin Isolated from Psoralea corylifolia on CYP1A in Human Liver Microsomes” (Evidence-based Complementary and Alternative Medicine : eCAM, 2016).)
